ChEMBL document CHEMBL1137330, “Synthesis and pharmacokinetics of valopicitabine (NM283), an efficient prodrug of the potent anti-HCV agent 2'-C-methylcytidine” (J Med Chem, 2006)
Values after ≈ are worked out from the molar mass of the structure shown. Blank lines part the entries; values can stand above or below the molecule they belong to.

How the values were obtained:
[1] = Urinary excretion in bile duct cannulated Sprague-Dawley rat at 100 mg/kg, po after 72 hrs; assay type: ADME, organism-based; design: dose 100 mg/kg, route oral; conditions: urine, read-out: Activity
[2] = Fecal excretion in bile duct cannulated Sprague-Dawley rat at 100 mg/kg, po after 72 hrs; assay type: ADME, organism-based; design: dose 100 mg/kg, route oral; conditions: faeces, read-out: Activity
Rattus norvegicus [3] = assay: Urinary excretion in intact Sprague-Dawley rat at 100 mg/kg, po after 168 hrs; assay type: ADME, organism-based, Urine; design: dose 100 mg/kg, route oral; conditions: in vivo
[4] = Fecal excretion in intact Sprague-Dawley rat at 100 mg/kg, po after 168 hrs; assay type: ADME, organism-based; design: dose 100 mg/kg, route oral; conditions: faeces, read-out: Activity
[5] = Biliary excretion in bile duct cannulated Sprague-Dawley rat at 100 mg/kg, po after 72 hrs; assay type: ADME, organism-based; design: dose 100 mg/kg, route oral; conditions: read-out: Activity
Rattus norvegicus [6] = assay: (§1) AUC (0-t) in jugular vein cannulated Sprague-Dawley rat at 100 mg/kg, po; assay type: ADME, organism-based, Plasma; design: dose 100 mg/kg, route oral; conditions: in vivo
[7] = Protein binding in rat plasma at 20 uM; assay type: ADME, cell-free; conditions: read-out: PPB (converted)
Rattus norvegicus [8] = assay: Terminal half life in jugular vein cannulated Sprague-Dawley rat at 100 mg/kg, po administered as prodrug; assay type: ADME, organism-based; design: dose 100 mg/kg, route oral; conditions: in vivo
Rattus norvegicus [9] = assay: Tmax in jugular vein cannulated Sprague-Dawley rat at 100 mg/kg, po administered as prodrug; assay type: ADME, organism-based; design: dose 100 mg/kg, route oral; conditions: in vivo
[10] = Aqueous solubility of the compound; assay type: physicochemical
[11] = Chemical stability at pH 1.2; assay type: physicochemical; conditions: buffer
Rattus norvegicus [12] = assay: Apparent oral bioavailability in jugular vein cannulated Sprague-Dawley rat at 100 mg/kg, po administered as prodrug; assay type: ADME, organism-based; conditions: in vivo
[13] = Chemical stability at pH 7.2; assay type: physicochemical; conditions: buffer
[14] = Distribution coefficient, log P of the compound; assay type: physicochemical; conditions: octanol/water
[15] = Cmax in Sprague-Dawley rat after 15 days at 60 mg/kg/day, iv; assay type: ADME, organism-based; design: dose 60 mg/kg/day, route intravenous; conditions: in vivo
[16] = AUC in Sprague-Dawley rat after 15 days at 60 mg/kg/day, iv; assay type: ADME, organism-based; design: route intravenous; conditions: plasma
[17] = Chemical stability at pH 4.5; assay type: physicochemical; conditions: buffer
Rattus norvegicus [18] = assay: AUC(0-t) in jugular vein cannulated Sprague-Dawley rat at 100 mg/kg, po administered as prodrug; assay type: ADME, organism-based, Plasma; design: dose 100 mg/kg, route oral; conditions: in vivo
Rattus norvegicus [19] = assay: Cmax in jugular vein cannulated Sprague-Dawley rat at 100 mg/kg, po administered as prodrug; assay type: ADME, organism-based; design: dose 100 mg/kg, route oral; conditions: in vivo
[20] = Half life in human whole blood; assay type: ADME, organism-based
Homo sapiens [21] = species on record: Homo sapiens; assay: Conversion of prodrug to 2'-C-methylcytidine in human liver S9 fraction; assay type: ADME, organism-based
Homo sapiens [22] = species on record: Homo sapiens; assay: Conversion of prodrug to 2'-C-methylcytidine in human liver cytosol; assay type: ADME, organism-based
Homo sapiens [23] = species on record: Homo sapiens; assay: Half life in human plasma
Plasma = assay: Drug level in jugular vein cannulated Sprague-Dawley rat plasma after 12 hrs; assay type: ADME, cell-free
[24] = as §1; assay type: ADME, organism-based, Plasma; design: dose 100 mg/kg, route oral; conditions: Sprague-Dawley, plasma
[25] = Tmax in jugular vein cannulated Sprague-Dawley rat at 100 mg/kg, po; assay type: ADME, organism-based; design: dose 100 mg/kg, route oral; conditions: in vivo
[26] = Terminal half life in jugular vein cannulated Sprague-Dawley rat at 100 mg/kg, po; assay type: ADME, organism-based; design: dose 100 mg/kg, route oral; conditions: in vivo, read-out: beta t1/2 (converted)
[27] = Cmax in jugular vein cannulated Sprague-Dawley rat at 100 mg/kg, po; assay type: ADME, organism-based; design: dose 100 mg/kg, route oral; conditions: in vivo
[28] = Half life at pH 4.5; assay type: ADME; conditions: buffer
[29] = Half life at pH 7.2; assay type: ADME; conditions: buffer

dose excreted at 72 h [1]: 29.8%
dose excreted at 72 h [2]: 65.9%
Activity (Rattus norvegicus [3]): 31.9%
dose excreted at 168 h [4]: 63.5%
dose excreted at 72 h [5]: 0.3%
Compound: CC(C)C(N)C(=O)O[C@H]1[C@H](CO)O[C@H](n2ccc(N)nc2=O)[14C@@]1(C)O.Cl.Cl (stereo partly drawn)

AUC (Rattus norvegicus [6]): < 0.1 µg/mL
Compound: C[C@@]1(O)[C@@H](n2ccc(=O)[nH]c2=O)O[C@@H](CO)[C@@H]1O

fraction unbound at 20 µM [7]: 0.95
beta t1/2 (Rattus norvegicus [8]): 7.1 h
Tmax (Rattus norvegicus [9]): 2 h
solubility [10]: 32 mg/mL (≈ 124 mM)
Stability [11]: Stable
F (Rattus norvegicus [12]): 33.6%
Stability [13]: Stable
logP [14]: -0.965
Cmax [15]: 75600 ng/mL
AUC at 360 h [16]: 74400 ng·h/mL
Stability [17]: Stable
AUC (Rattus norvegicus [18]): 30000 ng·h/mL
Cmax (Rattus norvegicus [19]): 6120 ng/mL
Compound: C[C@@]1(O)[C@H](O)[C@@H](CO)O[C@H]1n1ccc(N)nc1=O

fraction unbound at 20 µM [7]: 0.93
half-life [20]: 0.667 h
Activity (Homo sapiens [21]): 30%
Activity (Homo sapiens [22]): 30%
solubility [10]: 423 mg/mL
half-life (Homo sapiens [23]): 2.17 h
logP [14]: -1.34
Activity (Plasma): Not Active
AUC(0-t) [24]: 8950 ng·h/mL
Tmax [25]: 1 h
half-life [26]: 0.64 h
Cmax [27]: 3620 ng/mL
half-life [28]: 146 h
half-life [29]: 3.9 h
Compound: CC(C)[C@H](N)C(=O)O[C@@H]1[C@@H](CO)O[C@@H](n2ccc(N)nc2=O)[C@]1(C)O.Cl.Cl [VALOPICITABINE DIHYDROCHLORIDE]
